Reference: patent publication US20060078875A1, “Genetic selection of small molecule modulators of protein-protein interactions” (The Penn State Research Foundation, priority 2004, published 2006)
pKd: −log10 of the molar value. Peptide text beside a SMILES is read from it.

Experiments:
ATIC homodimer = target: T1, ATIC homodimer (Gallus gallus, UniProt P31335); experiment: ATIC RTHS ranking by spotting serial dilutions on selective media; assay type: cell-based; conditions: cyclic peptides in order of biological activity (1 = most active)
T1 construct: expressed in transfected cells; host or cells: E. coli RTHS strain with the ATIC fusion integrated on the chromosome
T1 sequence (P31335 1-593): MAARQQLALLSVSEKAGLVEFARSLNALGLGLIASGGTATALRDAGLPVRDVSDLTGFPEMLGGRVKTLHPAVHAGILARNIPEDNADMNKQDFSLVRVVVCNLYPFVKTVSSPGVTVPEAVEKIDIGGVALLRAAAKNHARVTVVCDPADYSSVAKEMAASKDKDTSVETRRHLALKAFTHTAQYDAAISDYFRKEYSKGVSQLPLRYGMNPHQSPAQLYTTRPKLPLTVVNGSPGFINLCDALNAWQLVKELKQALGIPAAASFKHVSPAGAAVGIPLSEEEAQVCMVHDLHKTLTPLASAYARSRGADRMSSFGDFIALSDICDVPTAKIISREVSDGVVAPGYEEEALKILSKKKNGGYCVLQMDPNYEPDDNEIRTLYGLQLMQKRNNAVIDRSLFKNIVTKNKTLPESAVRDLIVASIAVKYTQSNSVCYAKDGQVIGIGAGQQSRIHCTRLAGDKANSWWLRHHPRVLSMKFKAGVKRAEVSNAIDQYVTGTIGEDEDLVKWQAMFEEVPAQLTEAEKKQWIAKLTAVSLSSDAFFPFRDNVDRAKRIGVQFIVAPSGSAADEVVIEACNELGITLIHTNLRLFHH
Procedure: ATIC was cloned as a fusion with the bacteriophage 434 repressor DNA binding domain (into pTHCP16, FIG. 1B) such that expression of the repressor-ATIC fusion placed under control of an isopropyl β-D-thiogalactoside (IPTG) inducible promoter. […] In order to improve selection conditions, a new RTHS strain was constructed by integrating the ATIC fusion onto the chromosome. The level of IPTG giving optimal repression was determined to be 50 μM by β-galactosidase assays.
The first SICLOPPS library transformed into the selection strain encoded a hexapeptide with five random residues and a cysteine nucleophile. Approximately 10^7 transformants were plated onto histidine-free minimal media supplemented with arabinose, (inducer for SICLOPPS) 3-amino-1,2,4-triazole (3-AT, competitive inhibitor of HIS3 product) and kanamycin at a density of 10^6 per plate (100×15 mm). The plates were incubated until colonies were readily visible (approximately one in 10^5). A second library encoding an octapeptide with five random residues and an invariable SGW motif was also tested (not shown). Around 200 colonies were picked and screened for arabinose dependent growth advantage and IPTG dependent inhibition of growth to eliminate false positives. The expected phenotype was further confirmed by isolating and retransforming the selected SICLOPPS plasmids into the selection strain. The 14 remaining cyclic peptides were then ranked for activity by spotting serial dilutions of the corresponding cells onto selective media, allowing the conferred growth advantage to be compared at each dilution level.
SICLOPPS libraries were transformed into E. coli strains containing integrated reporter and repressor constructs. Transformants were washed with minimal media A and plated on minimal media A supplemented with 13 μM L-(+)-arabinose, 2.5 mM 3-amino-1,2,4-triazole, 25 μM kanamycin and 50 μM IPTG. After incubation at 37° C. for 3-4 days, surviving colonies were restreaked onto the same media with and without arabinose. Plasmids from selected strains whose growth depended on the presence of arabinose were retransformed into the original selection strain and checked for phenotype retention. The variable insert regions on SICLOPPS plasmids were PCR-amplified, and their DNA sequence determined.

avian ATIC (AICAR Tfase) = target: T2, avian ATIC (AICAR Tfase) (Gallus gallus, UniProt P31335); experiment: AICAR Tfase progress curve analysis (DynaFit); assay type: biochemical; design: 6× histidine tag (N); made in house; conditions: progress curves
T2 sequence (P31335 1-593): T1 sequence (P31335 1-593)
Procedure: The inhibitors were assayed under two conditions, limiting the amount of each substrate. In one case 168 nM of ATIC, 100 μM of 10-f-THF and 20 μM of AICAR was used (limiting AICAR), and in the second case 168 nM of ATIC, 40 μM of 10-f-THF and 100 μM of AICAR was used (limiting 10-f-THF). The reactions were monitored as outlined above, for 50 minutes. […] The data was fitted to the standard inhibition models (non-competitive, uncompetitive, mixed and competitive) and a model in which the inhibitor binds a monomer of ATIC preventing dimerization.
The progress curves were fitted to a model in which the inhibitor binds a single protomer of ATIC thereby preventing dimerization, as well as the standard inhibition models (non-competitive, uncompetitive, mixed and competitive) using DynaFit [Kuzmic (1996)].

His6-mR2 = target: T3, His6-mR2 (Mus musculus, UniProt P11157); experiment: Quenching of intrinsic mR2 tryptophan fluorescence; assay type: binding, murine; conditions: PBS pH 7.0
T3 construct: made in house; host or cells: E. coli BL21(λDE3), pET28a-MR2
T3 sequence (P11157 1-390): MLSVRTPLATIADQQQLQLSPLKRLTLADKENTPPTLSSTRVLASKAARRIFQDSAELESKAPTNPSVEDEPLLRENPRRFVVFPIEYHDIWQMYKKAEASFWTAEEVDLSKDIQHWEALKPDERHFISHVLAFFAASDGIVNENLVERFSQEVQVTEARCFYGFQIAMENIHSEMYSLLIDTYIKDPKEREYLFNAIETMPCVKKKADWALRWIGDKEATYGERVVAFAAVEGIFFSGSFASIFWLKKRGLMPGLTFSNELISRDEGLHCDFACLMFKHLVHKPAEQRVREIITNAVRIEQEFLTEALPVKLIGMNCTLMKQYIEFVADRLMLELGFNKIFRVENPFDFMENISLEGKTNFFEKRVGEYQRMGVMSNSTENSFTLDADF
Procedure: The equilibrium dissociation constant, KD, for His-tagged mR2·cRR130 complex was measured by the quenching of intrinsic protein fluorescence as a function of ligand concentration using a Flouromax-2 (SA Instruments) spectrofluorometer. His6-mR2 was added to 1× phosphate buffered saline (PBS) buffer at pH 7.0, and enzyme concentrations were kept below the KD being measured and were typically 1 μM. The small subunit mR2 contains six tryptophan residues whose combined fluorescence was monitored at 350 nm with excitation at 295 nm. Fluorescence data were collected as a function of added cRR130. The data was corrected for ligand background fluorescence and were fit to a hyperbolic equation to generate the KD value.

[1] = target: T4, ribonucleotide reductase small subunit (mR2) (Mus musculus, UniProt P11157); experiment: Immobilized c-RR130 binding/competition ELISA with mR2; design: species or system murine; conditions: increasing protein concentrations
T4 construct: made in house; host or cells: E. coli BL21(λDE3), pET28a-MR2
T4 sequence (P11157 1-390): T3 sequence (P11157 1-390)
Procedure: (§1) FIG. 8B provides the results of an immobilized P8 ELISA.
(§2) Two variations of solid phase binding assays were used for analyzing the binding of peptide inhibitors to ribonucleotide reductase subunits: i) protein competition ELISA where peptides were competing with mR1 for binding to immobilized mR2, ii) binding and competition ELISA with covalently immobilized ligands. In general, the solid phase assays were performed in microtiter plates (MaxiSorp, Nunc) or strip units (Reacti-Bind™ Maleimide Activated Clear Strip Plates, Pierce) involving continuous agitation in Junior Orbit Shaker (Lab-line Instruments) at medium speed during all of the incubation steps. Sample volumes were 100 μL, unless specified otherwise. Following coating, blocking step was conducted by incubating pre-loaded wells with 5% bovine serum albumin in PBS for 1 h at room temperature. Wash procedures between any two successive incubations involved three washes with 200 μL of 0.5% Tween-20 in PBS (PBST), with the second wash involving a 5 min incubation. Detection of His-tagged proteins was performed with Ni·NTA-HRP conjugate (Qiagen) according to the manufacturer instructions.
(§3) Peptides (200 nmol per well) in 10% DMF/50 mM Tris·HCl (pH 7.5) with 1 mM TCEP were reacted for 2 h at room temperature with maleimide-derivatized polystyrene wells. The unreacted sites were blocked by incubating wells with 5 μM cysteine in 50 mM Tris·HCl (pH 7.5) for 30 min. Following washing and blocking steps, the wells were incubated with His-tagged mR1 or mR2 in the presence or absence of inhibitors. The retained protein was detected via Ni·NTA-HRP conjugate.
(§4) To determine the mechanism of action of the four identified sequences an alternative assay format was devised (FIG. 8A), where a peptide with a residual activity in its immobilized form can serve as a specific ligand for receptor capture in both binding and competition ELISA. The success of such an assay relies on both efficient peptide immobilization strategy and sufficient level of affinity, uncompromised by this display strategy. The peptide immobilization becomes feasible through implementation of a cysteine, a nucleophile used in splicing, as a universal chemoselective handle allowing covalent attachment strategy through a suitable electrophile. Chemoselective attachment of such peptides on appropriately derivatized surfaces should both display the small molecules for detection with a suitable protein receptor and allow binding site competition analysis, not unlike in a traditional immunosorbent format.

[2] = target: T5, ribonucleotide reductase large subunit (mR1) (Mus musculus, UniProt P07742); experiment: Immobilized peptide binding/competition ELISA with mR1; design: species or system murine; conditions: peptide immobilized via cysteine on maleimide plates; His6-tagged mR1
T5 construct: made in house; host or cells: E. coli BL21(λDE3) Rosetta, pET28a-MR1
T5 sequence (P07742 1-792): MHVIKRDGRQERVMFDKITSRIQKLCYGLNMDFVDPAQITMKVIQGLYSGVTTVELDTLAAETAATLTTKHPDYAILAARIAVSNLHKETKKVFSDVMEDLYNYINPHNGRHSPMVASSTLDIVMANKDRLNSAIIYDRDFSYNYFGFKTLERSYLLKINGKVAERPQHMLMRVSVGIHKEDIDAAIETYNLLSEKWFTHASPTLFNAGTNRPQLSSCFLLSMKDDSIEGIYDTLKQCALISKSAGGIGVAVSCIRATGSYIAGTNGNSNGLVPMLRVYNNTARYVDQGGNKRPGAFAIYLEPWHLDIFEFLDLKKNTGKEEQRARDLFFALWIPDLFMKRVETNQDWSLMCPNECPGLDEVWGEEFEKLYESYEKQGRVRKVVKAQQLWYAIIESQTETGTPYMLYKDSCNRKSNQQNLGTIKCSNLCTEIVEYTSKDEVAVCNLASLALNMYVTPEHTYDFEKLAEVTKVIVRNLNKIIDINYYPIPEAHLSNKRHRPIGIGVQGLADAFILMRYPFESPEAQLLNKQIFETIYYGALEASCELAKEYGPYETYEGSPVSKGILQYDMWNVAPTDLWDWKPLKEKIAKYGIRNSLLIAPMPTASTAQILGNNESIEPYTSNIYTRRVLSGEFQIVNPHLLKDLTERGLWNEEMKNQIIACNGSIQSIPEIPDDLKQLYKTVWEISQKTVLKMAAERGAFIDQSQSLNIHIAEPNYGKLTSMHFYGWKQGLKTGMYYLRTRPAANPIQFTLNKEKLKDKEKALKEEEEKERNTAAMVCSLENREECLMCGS
Procedure: as §1, §2, §3, §4

HIV-1 protease = target: T6, HIV-1 protease (Human immunodeficiency virus type 1 group M subtype B, UniProt P04585, D513N); experiment: RTHS β-galactosidase assay, HIV-1 protease fusion in strain SNS118; assay type: cell-based; conditions: peptide co-expressed with HIV-1 protease fusion
T6 construct: HIV-1 protease was PCR amplified from pET-HIV-1; expressed in transfected cells; host or cells: E. coli strain SNS118 (integrated fusion)
Procedure: FIG. 4 has two graphs (A and B) of β-galactosidase assays showing the effect of linear peptide inhibitors on the oligomeric state of HIV-1 protease and ribonucleotide reductase.
pHIV5. HIV-1 protease was PCR amplified from pET-HIV-1 [Ido et al. (1991) J. Biol. Chem. 266:24359-24366] and cloned into SalI and BamHI sites of pTHCP16. The catalytic aspartate (D25) was mutated to asparagine using 3-primer PCR [Michael (1994) Biotechniques 16:410-412], and a S(G)4S linker was added at the SalI site.
Overlapping oligonucleotides encoding MTVSYEL (methionine plus hexapaptide control inhibitor) (SEQ ID:17) [Schramm et al. (1996) Antiviral Res. 30:155-170] were cloned into EcoRI and SphI sites on arabinose expression plasmid pBAD18.
Towards this goal, both enzyme complexes were probed with known linear peptidic inhibitors. These peptides are a C-terminal hexapeptide (FIG. 4A, pHIV16) for HIV protease that inhibits the essential β-sheet interactions [Schramm al. (1996) Antiviral Res. 30:155-170], and a heptapeptide for ribonucleotide reductase (pTHCP35, FIG. 4B) that competes with binding between subunits mR1 and mR2 [Yang et al. (1990) FEBS Lett. 272:61-64].

CC(C)[C@@H]1NC(=O)[C@H](CC(N)=O)NC(=O)[C@H](Cc2ccccc2)NC(=O)[C@H](Cc2ccc(O)cc2)NC(=O)[C@H](CCCNC(=N)N)NC(=O)[C@H](CS)NC1=O [c-1a, R Y F N V C] (cyclo(RYFNVC))
Activity Rank (ATIC homodimer): 1 | Best-fitting inhibition model with respect to 10-f-THF (avian ATIC (AICAR Tfase)): inhibition of enzyme dimerization | Best-fitting inhibition model with respect to AICAR (avian ATIC (AICAR Tfase)): non-competitive inhibition model

CC(C)[C@@H]1NC(=O)[C@H](CC(N)=O)NC(=O)[C@H](Cc2ccc(O)cc2)NC(=O)[C@H](Cc2ccc(O)cc2)NC(=O)[C@H](CCCNC(=N)N)NC(=O)[C@H](CS)NC1=O [c-RR130] (cyclo(CRYYNV))
pKd (His6-mR2): 4.28 | Capture of His6-tagged mR2 by immobilized peptide [1]: selectively captured | Affinity of immobilized peptide toward mR1 [2]: immune

CC(C)[C@@H]1NC(=O)[C@H](Cc2ccc(O)cc2)NC(=O)[C@H](CCCNC(=N)N)NC(=O)[C@H](Cc2c[nH]cn2)NC(=O)[C@H](CS)NC(=O)[C@H](Cc2ccccc2)NC1=O [c-RR133] (cyclo(CHRYVF))
pKd (His6-mR2): 3.88

MTVSYEL [pHIV16]
Repression of the lacZ reporter (HIV-1 protease): relieved repression
